Reference: US20140357662A1, “THIENO (2,3 - C) PYRAZOLES FOR USE AS POTASSIUM CHANNEL INHIBITORS” (XENTION LIMITED, priority 2011, published 2014)

Each compound was assayed against T1, rat Kir3.1/3.4 (Rattus norvegicus, UniProt P48548+P63251) (assay: Kir3.1/3.4 Electrophysiology Method (manual whole-cell patch clamp)). Details: Human Embryonic Kidney 293 stably transfected with rat Kir3.1/3.4; inhibition of leak-subtracted current at -140 mV.
T1 construct: expressed in transfected cells; host or cells: HEK293 (Human Embryonic Kidney 293), stably transfected
T1 sequence (P63251 1-501): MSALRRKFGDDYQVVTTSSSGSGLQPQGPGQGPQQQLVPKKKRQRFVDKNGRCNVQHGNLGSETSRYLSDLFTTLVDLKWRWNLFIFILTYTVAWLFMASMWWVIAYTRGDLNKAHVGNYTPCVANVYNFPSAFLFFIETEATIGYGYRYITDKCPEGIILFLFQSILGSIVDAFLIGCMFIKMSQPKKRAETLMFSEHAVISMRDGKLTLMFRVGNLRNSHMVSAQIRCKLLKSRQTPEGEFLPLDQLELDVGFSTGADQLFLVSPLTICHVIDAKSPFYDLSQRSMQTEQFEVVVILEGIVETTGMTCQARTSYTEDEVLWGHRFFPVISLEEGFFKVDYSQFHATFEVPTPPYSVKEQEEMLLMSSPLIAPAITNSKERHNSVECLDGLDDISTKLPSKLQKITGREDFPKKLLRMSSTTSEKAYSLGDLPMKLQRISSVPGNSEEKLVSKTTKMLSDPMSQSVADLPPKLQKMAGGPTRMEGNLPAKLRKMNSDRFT
T1 sequence (P48548 1-419): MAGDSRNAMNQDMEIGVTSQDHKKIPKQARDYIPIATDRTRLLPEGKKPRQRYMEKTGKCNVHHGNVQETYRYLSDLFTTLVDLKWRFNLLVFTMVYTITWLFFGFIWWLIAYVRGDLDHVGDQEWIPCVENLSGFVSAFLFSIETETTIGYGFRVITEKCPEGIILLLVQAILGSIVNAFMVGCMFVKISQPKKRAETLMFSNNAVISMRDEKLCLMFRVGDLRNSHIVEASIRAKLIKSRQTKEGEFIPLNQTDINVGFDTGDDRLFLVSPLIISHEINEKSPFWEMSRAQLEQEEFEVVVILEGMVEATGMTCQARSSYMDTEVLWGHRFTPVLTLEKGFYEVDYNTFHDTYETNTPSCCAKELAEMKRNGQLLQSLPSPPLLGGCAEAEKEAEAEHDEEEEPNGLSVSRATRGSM
Type: cell-based
Experimental: Compound activity against the recombinant G-protein activated inward rectifier current encoded by the heterotetramer Kir3.1/3.4 was assessed using manual whole-cell patch technique. The heterotetramer forms the pore-forming channel that conducts the acetylcholine/adenosine-activated potassium current in the heart.
For whole-cell patch-clamp studies, cells (Human Embryonic Kidney 293 stably transfected with rat Kir3.1/3.4) were seeded onto glass coverslips before recordings were made. Cells were seeded in sterile 30 mm Petri dishes at a density to enable isolated cells to be selected for patch clamp experiments. The dishes were stored in a humidified, gassed (5% CO2) incubator at 37° C. until use.
Whole-cell patch-clamp recordings of membrane currents were made following gigaohm seal formation between the patch electrode and the cell using HEKA EPC-9/10 amplifiers controlled by Pulse Software (Ver8.5x/8.6x/8.7x, HEKA, Germany). Coverslips seeded with cells were placed in a recording chamber mounted on the stage of an inverted microscope. During the experiment, the cell of interest was continuously superfused with bather solution delivered via a cannula placed in close proximity to the cell to enable control of the extracellular solution environment. Only those cells with a current <−500 pA (current at −140 mV) were used for experiments. During experiments, series resistance was compensated by a minimum of 70%.
Electrophysiology voltage-step protocols and analysis of data were performed as follows. Data was sampled at 5 kHz, and filtered with a −3 dB bandwidth of 2.5 kHz. Cells were held at a voltage of −60 mV. Currents were evoked by a depolarising voltage step to +60 mV (100 ms) before a ramp-repolarisation (0.4 V·s^−1) to −140 mV (100 ms) before returning to −60 mV. The command waveform was repeatedly applied every 10 s throughout the experiment. Mean currents during 1-99% of the time at −140 mV were analysed using Pulsefit software (v8.x, HEKA, Germany). The voltage protocol was repeatedly applied to achieve a stable current baseline in bather before the test substance was superfused via the cannula in close proximity to the cell under investigation. The test substance was allowed to equilibrate during which time voltage protocol was repeatedly applied and recorded. On reaching steady-state inhibition, the cell was superfused with an identical bather solution containing zero external potassium chloride (replaced by equimolar NaCl). The identical current measurement was made in the absence of potassium to assess the passive leak at −140 mV. The leak current was subtracted from the control and steady-state drug current values. The percentage inhibition of the leak-subtracted current in the presence of test substance was calculated relative to the control leak-subtracted pre-drug value. Internal patch-pipette solution contained in mM: 110 KCl, 20 NaCl, 0.9 GTPγS, 5 Mg-ATP, 5 EGTA, 10 HEPES, pH7.2 corrected with KOH. The external superfusate composition in mM was: 150 (or 160) NaCl, 10 (or 0) KCl, 3 CaCl2, 1 MgCl, 10 HEPES, pH 7.4 corrected with NaOH.

IC50 [nM]	SMILES
< 500	Brc1sc2[nH]nc(N3CC4CC3CC4OCCN3CCCC3)c2c1-c1ccccc1 (stereo not drawn) [Compound 2, 5-bromo-4-phenyl-3-[5-(2-pyrrolidin-1-ylethoxy)-2-azabicyclo[2.2.1]heptan-2-yl]-1H-thieno[2,3-c]pyrazole]
< 500	c1ccc(-c2csc3[nH]nc(N4CC5CC4CC5OCCN4CCCC4)c23)cc1 (stereo not drawn) [Compound 4, 4-phenyl-3-[5-(2-pyrrolidin-1-ylethoxy)-2-azabicyclo[2.2.1]heptan-2-yl]-1H-thieno[2,3-c]pyrazole]
< 500	Fc1ccc(-c2csc3[nH]nc(N4CC5CC4CC5OCCN4CCCC4)c23)cc1 (stereo not drawn) [Compound 5, 4-(4-fluorophenyl)-3-[5-(2-pyrrolidin-1-ylethoxy)-2-azabicyclo[2.2.1]heptan-2-yl]-1H-thieno[2,3-c]pyrazole]
< 500	c1ccc(-c2csc3[nH]nc(N4CCC(COCCN5CCCC5)C4)c23)cc1 (stereo not drawn) [Compound 9, 4-phenyl-3-[3-(2-pyrrolidin-1-ylethoxymethyl)pyrrolidin-1-yl]-1H-thieno[2,3-c]pyrazole]
< 500	CC(=O)n1nc(N2CCC(COCCN3CCCC3)CC2)c2c(-c3ccccc3)csc21 [Compound 13, 1-[4-phenyl-3-[4-(2-pyrrolidin-1-ylethoxymethyl)-1-piperidyl]thieno[2,3-c]pyrazol-1-yl]ethanone]
< 500	CC(=O)n1nc(N2CC3CC2CC3OCCN2CCCC2)c2c(-c3ccccc3)csc21 (stereo not drawn) [Compound 14, 1-[4-phenyl-3-[5-(2-pyrrolidin-1-ylethoxy)-2-azabicyclo[2.2.1]heptan-2-yl]thieno[2,3-c]pyrazol-1-yl]ethanone]
< 500	CC(=O)n1nc(N2CC3CC2CC3OCCN2CCCC2)c2c(-c3ccc(F)cc3)csc21 (stereo not drawn) [Compound 15, 1-[4-(4-fluorophenyl)-3-[5-(2-pyrrolidin-1-ylethoxy)-2-azabicyclo[2.2.1]heptan-2-yl]thieno[2,3-c]pyrazol-1-yl]ethanone]
< 500	CS(=O)(=O)n1nc(N2CC3CC2CC3OCCN2CCCC2)c2c(-c3ccc(F)cc3)csc21 (stereo not drawn) [Compound 16, 4-(4-fluorophenyl)-1-methylsulfonyl-3-[5-(2-pyrrolidin-1-ylethoxy)-2-azabicyclo[2.2.1]heptan-2-yl]thieno[2,3-c]pyrazole]
< 500	CC(=O)n1nc(N2CCCC(COCCN3CCCC3)C2)c2c(-c3ccccc3)csc21 (stereo not drawn) [Compound 18, 1-[4-phenyl-3-[3-(2-pyrrolidin-1-ylethoxymethyl)-1-piperidyl]thieno[2,3-c]pyrazol-1-yl]ethanone]
< 500	CC(=O)n1nc(N2CCC(COCCN3CCCC3)C2)c2c(-c3ccccc3)csc21 (stereo not drawn) [Compound 19, 1-[4-phenyl-3-[3-(2-pyrrolidin-1-ylethoxymethyl)pyrrolidin-1-yl]thieno[2,3-c]pyrazol-1-yl]ethanone]
< 500	CS(=O)(=O)n1nc(N2CCC(COCCN3CCCC3)CC2)c2c(-c3ccccc3)csc21 [Compound 20, 1-methylsulfonyl-4-phenyl-3-[4-(2-pyrrolidin-1-ylethoxymethyl)-1-piperidyl]thieno[2,3-c]pyrazole]
< 500	Cn1nc(N2CCC(COCCN3CCCC3)CC2)c2c(-c3ccccc3)csc21 [Compound 21, 1-methyl-4-phenyl-3-[4-(2-pyrrolidin-1-ylethoxymethyl)-1-piperidyl]thieno[2,3-c]pyrazole]

Continued, compound first:

SMILES	IC50 [nM]
c1ccc(-c2csc3[nH]nc(N4CCC(COCCN5CCCC5)CC4)c23)cc1 [Compound 1, 4-phenyl-3-[4-(2-pyrrolidin-1-ylethoxymethyl)-1-piperidyl]-1H-thieno[2,3-c]pyrazole]	< 500
N#Cc1sc2[nH]nc(N3CCC(COCCN4CCCC4)CC3)c2c1-c1ccccc1 [Compound 3, 4-phenyl-3-[4-(2-pyrrolidin-1-ylethoxymethyl)-1-piperidyl]-1H-thieno[2,3-c]pyrazole-5-carbonitrile]	< 500
c1ccc(-c2csc3[nH]nc(N4C5CCC4CC(COCCN4CCCC4)C5)c23)cc1 (stereo not drawn) [Compound 6, 4-phenyl-3-[3-(2-pyrrolidin-1-ylethoxymethyl)-8-azabicyclo[3.2.1]octan-8-yl]-1H-thieno[2,3-c]pyrazole]	< 500
c1ccc(-c2csc3[nH]nc(N4C5CCC4CC(OCCN4CCCC4)C5)c23)cc1 (stereo not drawn) [Compound 7, 4-phenyl-3-[3-(2-pyrrolidin-1-ylethoxy)-8-azabicyclo[3.2.1]octan-8-yl]-1H-thieno[2,3-c]pyrazole]	< 500
c1ccc(-c2csc3[nH]nc(N4CCCC(COCCN5CCCC5)C4)c23)cc1 (stereo not drawn) [Compound 8, 4-phenyl-3-[3-(2-pyrrolidin-1-ylethoxymethyl)-1-piperidyl]-1H-thieno[2,3-c]pyrazole]	< 500
c1ccc(-c2csc3[nH]nc(N4C5CCC4CC(NC4CCC4)C5)c23)cc1 (stereo not drawn) [Compound 10, N-cyclobutyl-8-(4-phenyl-1H-thieno[2,3-c]pyrazol-3-yl)-8-azabicyclo[3.2.1]octan-3-amine]	< 500
c1ccc(-c2csc3[nH]nc(N4C5CCC4CC(N4CCC4)C5)c23)cc1 (stereo not drawn) [Compound 11, 3-[3-(azetidin-1-yl)-8-azabicyclo[3.2.1]octan-8-yl]-4-phenyl-1H-thieno[2,3-c]pyrazole]	500 to 3000
CC(C)NC1CC2CCC(C1)N2c1n[nH]c2scc(-c3ccccc3)c12 (stereo not drawn) [Compound 12, N-isopropyl-8-(4-phenyl-1H-thieno[2,3-c]pyrazol-3-yl)-8-azabicyclo[3.2.1]octan-3-amine]	500 to 3000
CC(=O)n1nc(N2C3CCC2CC(OCCN2CCCC2)C3)c2c(-c3ccccc3)csc21 (stereo not drawn) [Compound 17, 1-[4-phenyl-3-[3-(2-pyrrolidin-1-ylethoxy)-8-azabicyclo[3.2.1]octan-8-yl]thieno[2,3-c]pyrazol-1-yl]ethanone]	< 500
CN(C)C(=O)c1sc2c(c(N3CCC(COCCN4CCCC4)CC3)nn2C)c1-c1ccccc1 [Compound 22, N,N,1-trimethyl-4-phenyl-3-[4-(2-pyrrolidin-1-ylethoxymethyl)-1-piperidyl]thieno[2,3-c]pyrazole-5-carboxamide]	500 to 3000
CN(C)C(=O)c1sc2[nH]nc(N3CCC(COCCN4CCCC4)CC3)c2c1-c1ccccc1 [Compound 23, N,N-dimethyl-4-phenyl-3-[4-(2-pyrrolidin-1-ylethoxymethyl)-1-piperidyl]-1H-thieno[2,3-c]pyrazole-5-carboxamide]	500 to 3000
CC(C)NC(=O)c1sc2[nH]nc(N3CCC(COCCN4CCCC4)CC3)c2c1-c1ccccc1 [Compound 24, N-isopropyl-4-phenyl-3-[4-(2-pyrrolidin-1-ylethoxymethyl)-1-piperidyl]-1H-thieno[2,3-c]pyrazole-5-carboxamide]	< 500
